Laboratory results taken from ChEMBL document CHEMBL5154867, “Baylis-Hillman Adducts as a Versatile Module for Constructing Fluorogenic Release System” (J Med Chem, 2022).

How the values were obtained:
[1] = Prodrug activation in PBS at pH 7.4 assessed as drug release by measuring maximal fluorescence change at 10 uM in presence of 1 mM GSH measured after 60 mins relative to control; details: buffer, pH 7.4, 1 h
[2] = Prodrug activation in PBS at pH 7.4 assessed as drug release at 10 uM in presence of 1 mM GSH measured immediately by HPLC analysis relative to control; details: buffer, pH 7.4, 10 µM
[3] = Prodrug activation in PBS at pH 7.4 assessed as drug release at 10 uM in presence of 1 mM GSH measured after 60 mins by HPLC analysis relative to control; details: buffer, pH 7.4, 1 h
[4] = Prodrug activation in PBS at pH 7.4 assessed as drug release by measuring maximal fluorescence change at 10 uM in presence of 1 mM GSH measured after 20 mins relative to control; details: buffer, pH 7.4, 20 min
[5] = Prodrug activation in PBS at pH 7.4 assessed as drug release at 10 uM in presence of 1 mM GSH measured after 20 mins by HPLC analysis relative to control; details: buffer, pH 7.4, 20 min
[6] = Prodrug activation in PBS at pH 7.4 assessed as drug release at 10 uM in presence of 1 mM GSH measured after 30 mins by HPLC analysis relative to control; details: buffer, pH 7.4, 0.5 h
[7] = Prodrug activation in PBS at pH 7.4 assessed as drug release at 10 uM in presence of 1 mM GSH measured after 40 mins by HPLC analysis relative to control; details: buffer, pH 7.4, 40 min
[8] = Prodrug activation in PBS at pH 7.4 assessed as drug release by measuring maximal fluorescence change at 10 uM in presence of 1 mM GSH measured after 30 mins relative to control; details: buffer, pH 7.4, 0.5 h
[9] = Prodrug activation in PBS at pH 7.4 assessed as drug release at 10 uM in presence of 1 mM GSH measured after 50 mins by HPLC analysis relative to control; details: buffer, pH 7.4, 50 min
[10] = Prodrug activation in PBS at pH 7.4 assessed as drug release at 10 uM in presence of 1 mM GSH measured after 10 mins by HPLC analysis relative to control; details: buffer, pH 7.4, 10 min
[11] = Prodrug activation in PBS at pH 7.4 assessed as drug release by measuring maximal fluorescence change at 10 uM in presence of 1 mM GSH measured after 40 mins relative to control; details: buffer, pH 7.4, 40 min
[12] = Prodrug activation in PBS at pH 7.4 assessed as drug release by measuring maximal fluorescence change at 10 uM in presence of 1 mM GSH measured after 10 mins relative to control; details: buffer, pH 7.4, 10 min
[13] = Prodrug activation in PBS at pH 7.4 assessed as drug release by measuring maximal fluorescence change at 10 uM in presence of 1 mM GSH measured immediately relative to control; details: buffer, pH 7.4, 10 µM
[14] = Prodrug activation in PBS at pH 7.4 assessed as drug release by measuring maximal fluorescence change at 10 uM in presence of 1 mM GSH measured after 50 mins relative to control; details: buffer, pH 7.4, 50 min
[15] = Prodrug activation in PBS at pH 7.4 assessed as drug release by measuring maximal fluorescence change at 10 uM in presence of 2 mM GSH measured after 10 mins relative to control; details: buffer, pH 7.4, 10 min
[16] = Prodrug activation in PBS at pH 7.4 assessed as drug release at 10 uM in presence of 2 mM GSH measured after 60 mins by HPLC analysis relative to control; details: buffer, pH 7.4, 1 h
[17] = Prodrug activation in PBS at pH 7.4 assessed as drug release by measuring maximal fluorescence change at 10 uM in presence of 2 mM GSH measured immediately relative to control; details: buffer, pH 7.4, 10 µM
[18] = Prodrug activation in PBS at pH 7.4 assessed as drug release at 10 uM in presence of 2 mM GSH measured after 40 mins by HPLC analysis relative to control; details: buffer, pH 7.4, 40 min
[19] = Prodrug activation in PBS at pH 7.4 assessed as drug release by measuring maximal fluorescence change at 10 uM in presence of 2 mM GSH measured after 60 mins relative to control; details: buffer, pH 7.4, 1 h
[20] = Prodrug activation in PBS at pH 7.4 assessed as drug release by measuring maximal fluorescence change at 10 uM in presence of 2 mM GSH measured after 40 mins relative to control; details: buffer, pH 7.4, 40 min
[21] = Prodrug activation in PBS at pH 7.4 assessed as drug release by measuring maximal fluorescence change at 10 uM in presence of 2 mM GSH measured after 20 mins relative to control; details: buffer, pH 7.4, 20 min
[22] = Prodrug activation in PBS at pH 7.4 assessed as drug release by measuring maximal fluorescence change at 10 uM in presence of 2 mM GSH measured after 50 mins relative to control; details: buffer, pH 7.4, 50 min
[23] = Prodrug activation in PBS at pH 7.4 assessed as drug release at 10 uM in presence of 2 mM GSH measured after 50 mins by HPLC analysis relative to control; details: buffer, pH 7.4, 50 min
[24] = Prodrug activation in PBS at pH 7.4 assessed as drug release at 10 uM in presence of 2 mM GSH measured after 20 mins by HPLC analysis relative to control; details: buffer, pH 7.4, 20 min
[25] = Prodrug activation in PBS at pH 7.4 assessed as drug release at 10 uM in presence of 2 mM GSH measured after 10 mins by HPLC analysis relative to control; details: buffer, pH 7.4, 10 min
[26] = Prodrug activation in PBS at pH 7.4 assessed as drug release by measuring maximal fluorescence change at 10 uM in presence of 2 mM GSH measured after 30 mins relative to control; details: buffer, pH 7.4, 0.5 h
[27] = Prodrug activation in PBS at pH 7.4 assessed as drug release at 10 uM in presence of 2 mM GSH measured immediately by HPLC analysis relative to control; details: buffer, pH 7.4, 10 µM
[28] = Prodrug activation in PBS at pH 7.4 assessed as drug release at 10 uM in presence of 2 mM GSH measured after 30 mins by HPLC analysis relative to control; details: buffer, pH 7.4, 0.5 h
[29] = Prodrug activation in PBS at pH 7.4 assessed as drug release by measuring maximal fluorescence change at 10 uM in presence of 2 mM GSH measured after 60 to 300 mins relative to control; details: buffer, pH 7.4, 10 µM, time 60-300 min
[30] = Prodrug activation in PBS at pH 7.4 assessed as drug release at 10 uM in presence of 2 mM GSH measured after 60 to 300 mins by HPLC analysis relative to control; details: buffer, pH 7.4, 10 µM, time 60-300 min

Structure (SMILES) | Activity [1] [%] | Activity [2] [%] | Activity [3] [%] | Activity [4] [%] | Activity [5] [%] | Activity [6] [%] | Activity [7] [%] | Activity [8] [%] | Activity [9] [%] | Activity [10] [%] | Activity [11] [%] | Activity [12] [%] | Activity [13] [%] | Activity [14] [%] | further results
C=C(CN(C)Cc1ccccc1)C(=O)c1ccc2cc(N(C)C)ccc2c1 | 97.1 | 0 | 92.4 | 72.5 | 91.8 | 92.2 | 92 | 85.1 | 93.1 | 88.2 | 93.5 | 50.5 | 3.8 | 96.5 | 
C=C(COC(=O)OCc1ccccc1)C(=O)c1ccc2cc(N(C)C)ccc2c1 | 97.4 | 0 | 95.1 | 65.4 | 94.5 | 95.5 | 94.6 | 83.6 | 94.6 | 93.4 | 96.5 | 41 | 3.9 | 96.5 | 
C=C(C[N+](C)(C)Cc1ccccc1)C(=O)c1ccc2cc(N(C)C)ccc2c1.[Br-] | 99 | 0 | 98.9 | 90.6 | 97.8 | 98.2 | 98.5 | 90.6 | 99.6 | 95.6 | 97.2 | 48.1 | 0.5 | 98.4 | 
C=C(COC(=O)c1ccccc1)C(=O)c1ccc2cc(N(C)C)ccc2c1 |  |  |  |  |  |  |  |  |  |  |  |  |  |  | Activity [15]: 40.1%; Activity [16]: 72.1%; Activity [17]: 1.4%; Activity [18]: 98.7%; Activity [19]: 83.2%; Activity [20]: 95.7%; Activity [21]: 71.2%; Activity [22]: 97.8%; Activity [23]: 99.9%; Activity [24]: 97.3%; Activity [25]: 92.8%; Activity [26]: 88.1%; Activity [27]: 0%; Activity [28]: 98.6%
C=C(COC(=O)Nc1ccccc1)C(=O)c1ccc2cc(N(C)C)ccc2c1 | 96.5 | 0 | 98.2 | 64.6 | 91.1 | 96.5 | 97.1 | 79.9 | 97.9 | 82.6 | 88.9 | 39.3 | 2.7 | 94.6 | 
C=C(COc1ccccc1)C(=O)c1ccc2cc(N(C)C)ccc2c1 | 99.1 | 0 | 93.5 | 70.1 | 93.5 | 93.5 | 92.7 | 87.9 | 93.2 | 91.2 | 95.5 | 38.8 | 0.7 | 97.3 | 
C=C(CSc1ccccc1)C(=O)c1ccc2cc(N(C)C)ccc2c1 | 96.5 | 0 | 95.4 | 53.5 | 76.6 | 90.6 | 95.1 | 72.2 | 94.8 | 42.6 | 86.3 | 27.2 | 3.1 | 93.7 | 
C=C(CSCc1ccccc1)C(=O)c1ccc2cc(N(C)C)ccc2c1 |  |  |  |  |  |  |  |  |  |  |  |  |  |  | Activity [15]: 14.8%; Activity [17]: 4.8%; Activity [29]: 98.6%; Activity [18]: 35.2%; Activity [20]: 42.2%; Activity [21]: 22.1%; Activity [22]: 78.3%; Activity [30]: 99.9%; Activity [23]: 68.6%; Activity [24]: 13.9%; Activity [25]: 5.6%; Activity [26]: 27.5%; Activity [27]: 0%; Activity [28]: 19.9%
C=C(COC(=O)Cc1ccccc1)C(=O)c1ccc2cc(N(C)C)ccc2c1 | 98.1 | 0 | 99.1 | 71.5 | 97.1 | 98.3 | 97.5 | 89.2 | 98.7 | 94.3 | 95.3 | 42.4 | 1.2 | 97.7 | 
